Results reported in ChEMBL document CHEMBL1926681, “Novel inhibitors of epidermal growth factor receptor: (4-(Arylamino)-7H-pyrrolo[2,3-d]pyrimidin-6-yl)(1H-indol-2-yl)methanones and (1H-indol-2-yl)(4-(phenylamino)thieno[2,3-d]pyrimidin-6-yl)methanones” (Bioorg Med Chem, 2012).
The source made the active and inactive calls. The rule behind the calls is not given here.

Experiments:
[1] = Cytotoxicity against human DIFI cells after 4 days by propidium iodide staining-based fluorometric analysis; assay type: functional, cell-based; details: 96 h
[2] = test system: MKN-45; experiment: Cytotoxicity against human MKN45 cells after 4 days by propidium iodide staining-based fluorometric analysis; assay type: functional, cell-based; details: MKN-45, 96 h
[3] = Cytotoxicity against human RXF 486L cells after 4 days by propidium iodide staining-based fluorometric analysis; assay type: functional, cell-based; details: 96 h
[4] = Cytotoxicity against human BXF T24 cells after 4 days by propidium iodide staining-based fluorometric analysis; assay type: functional, cell-based; details: T-24, 96 h
[5] = Cytotoxicity against human PAXF 546L cells after 4 days by propidium iodide staining-based fluorometric analysis; assay type: functional, cell-based; details: 96 h
[6] = Cytotoxicity against human LXFL 1121L cells after 4 days by propidium iodide staining-based fluorometric analysis; assay type: functional, cell-based; details: 96 h
[7] = Cytotoxicity against human BXF 1352L cells after 4 days by propidium iodide staining-based fluorometric analysis; assay type: functional, cell-based; details: 96 h
[8] = test system: SAOS-2; experiment: Cytotoxicity against human Saos2 cells after 4 days by propidium iodide staining-based fluorometric analysis; assay type: functional, cell-based; details: SAOS-2, 96 h, read-out: IC50
[9] = test system: DU-145; experiment: Cytotoxicity against human DU145 cells after 4 days by propidium iodide staining-based fluorometric analysis; assay type: functional, cell-based; details: DU-145, 96 h
[10] = target: T1, Epidermal growth factor receptor (Homo sapiens, UniProt P00533); experiment: Inhibition of EGFR using poly(Glu,Tyr)4:1 as substrate and [gamma33P]ATP after 60 mins by scintillation counting
[11] = Cytotoxicity against human PXF 698L cells after 4 days by propidium iodide staining-based fluorometric analysis; assay type: functional, cell-based; details: 96 h
[12] = Cytotoxicity against human PXF 1118L cells after 4 days by propidium iodide staining-based fluorometric analysis; assay type: functional, cell-based; details: 96 h
[13] = Cytotoxicity against human RXF 393NL cells after 4 days by propidium iodide staining-based fluorometric analysis; assay type: functional, cell-based; details: 96 h
[14] = Cytotoxicity against human PXF 1752L cells after 4 days by propidium iodide staining-based fluorometric analysis; assay type: functional, cell-based; details: 96 h
[15] = test system: HT-29; experiment: Cytotoxicity against human HT-29 cells after 4 days by propidium iodide staining-based fluorometric analysis; assay type: functional, cell-based; details: HT-29, 96 h
[16] = Cytotoxicity against human MAXF 401NL cells after 4 days by propidium iodide staining-based fluorometric analysis; assay type: functional, cell-based; details: 96 h
[17] = test system: TE-671; experiment: Cytotoxicity against human TE671 cells after 4 days by propidium iodide staining-based fluorometric analysis; assay type: functional, cell-based; details: TE-671, 96 h
[18] = target: T1, Epidermal growth factor receptor; experiment: Inhibition of EGFR using poly(Glu,Tyr)4:1 as substrate and [gamma33P]ATP at 1 uM after 60 mins by scintillation counting
[19] = Cytotoxicity against human PAXF 1657L cells after 4 days by propidium iodide staining-based fluorometric analysis; assay type: functional, cell-based; details: 96 h
[20] = test system: HCT-116; experiment: Cytotoxicity against human HCT116 cells after 4 days by propidium iodide staining-based fluorometric analysis; assay type: functional, cell-based; details: HCT-116, 96 h
[21] = Cytotoxicity against human LXFA 629L cells after 4 days by propidium iodide staining-based fluorometric analysis; assay type: functional, cell-based; details: 96 h
[22] = Cytotoxicity against human RXF 1781L cells after 4 days by propidium iodide staining-based fluorometric analysis; assay type: functional, cell-based; details: 96 h
[23] = Cytotoxicity against human MEXF 462NL cells after 4 days by propidium iodide staining-based fluorometric analysis; assay type: functional, cell-based; details: 96 h
[24] = Cytotoxicity against human LXFL 529L cells after 4 days by propidium iodide staining-based fluorometric analysis; assay type: functional, cell-based; details: 96 h
[25] = Cytotoxicity against human BXF 1218L cells after 4 days by propidium iodide staining-based fluorometric analysis; assay type: functional, cell-based; details: 96 h
[26] = test system: RKO; experiment: Cytotoxicity against human RKO cells after 4 days by propidium iodide staining-based fluorometric analysis; assay type: functional, cell-based; details: 96 h
[27] = target: Tyrosine-protein kinase ABL1 (Homo sapiens) (UniProt P00519); experiment: Inhibition of ABL1 using poly(Ala, Glu, Lys, Tyr) as substrate and [gamma33P]ATP at 1 uM after 60 mins by scintillation counting
[28] = test system: LNCaP; experiment: Cytotoxicity against human LNCAP cells after 4 days by propidium iodide staining-based fluorometric analysis; assay type: functional, cell-based; details: 96 h
[29] = Cytotoxicity against human LXFA 289L cells after 4 days by propidium iodide staining-based fluorometric analysis; assay type: functional, cell-based; details: 96 h
[30] = test system: CAL-27; experiment: Cytotoxicity against human CAL27 cells after 4 days by propidium iodide staining-based fluorometric analysis; assay type: functional, cell-based; details: CAL-27, 96 h
[31] = Cytotoxicity against human PC3M cells after 4 days by propidium iodide staining-based fluorometric analysis; assay type: functional, cell-based; details: PC-3M, 96 h
[32] = test system: MCF7; experiment: Cytotoxicity against human MCF7 cells after 4 days by propidium iodide staining-based fluorometric analysis; assay type: functional, cell-based; details: MCF7, 96 h
[33] = target: Receptor tyrosine-protein kinase erbB-2 (Homo sapiens) (UniProt P04626); experiment: Inhibition of Erbb2 using poly(Glu,Tyr)4:1 as substrate and [gamma33P]ATP at 1 uM after 60 mins by scintillation counting
[34] = test system: OVCAR-3; experiment: Cytotoxicity against human OVCAR3 cells after 4 days by propidium iodide staining-based fluorometric analysis; assay type: functional, cell-based; details: OVCAR-3, 96 h
[35] = Cytotoxicity against human OVXF 899L cells after 4 days by propidium iodide staining-based fluorometric analysis; assay type: functional, cell-based; details: 96 h
[36] = test system: CWR22R; experiment: Cytotoxicity against human 22Rv1 cells after 4 days by propidium iodide staining-based fluorometric analysis; assay type: functional, cell-based; details: 22Rv1, 96 h
[37] = Cytotoxicity against human GXF251L cells after 4 days by propidium iodide staining-based fluorometric analysis; assay type: functional, cell-based; details: GXF 251L, 96 h
[38] = Cytotoxicity against human MEXF 276L cells after 4 days by propidium iodide staining-based fluorometric analysis; assay type: functional, cell-based; details: MEXF276L, 96 h
[39] = target: T1, Epidermal growth factor receptor; experiment: Inhibition of EGFR autophosphorylation in EGF-stimulated human A431 cells after 1 hr by immunoblotting; assay type: cell-based, A-431
[40] = Cytotoxicity against human UXF 1138L cells after 4 days by propidium iodide staining-based fluorometric analysis; assay type: functional, cell-based; details: 96 h
[41] = Cytotoxicity against human LXFA 526L cells after 4 days by propidium iodide staining-based fluorometric analysis; assay type: functional, cell-based; details: 96 h
[42] = Cytotoxicity against human LIXF 575L cells after 4 days by propidium iodide staining-based fluorometric analysis; assay type: functional, cell-based; details: 96 h
[43] = Cytotoxicity against human MDA231 cells after 4 days by propidium iodide staining-based fluorometric analysis; assay type: functional, cell-based; details: MDA-MB-231, 96 h
[44] = Cytotoxicity against human MEXF 1341L cells after 4 days by propidium iodide staining-based fluorometric analysis; assay type: functional, cell-based; details: 96 h
[45] = test system: NCI-H460; experiment: Cytotoxicity against human H460 cells after 4 days by propidium iodide staining-based fluorometric analysis; assay type: functional, cell-based; details: NCI-H460, 96 h
[46] = target: Hepatocyte growth factor receptor (Homo sapiens) (UniProt P08581); experiment: Inhibition of MET using poly(Ala, Glu, Lys, Tyr) as substrate and [gamma33P]ATP at 1 uM after 60 mins by scintillation counting
[47] = target: Vascular endothelial growth factor receptor 2 (Homo sapiens) (UniProt P35968); experiment: Inhibition of VEGFR2 using poly(Glu,Tyr)4:1 as substrate and [gamma33P]ATP at 1 uM after 60 mins by scintillation counting
[48] = test system: PANC-1; experiment: Cytotoxicity against human PANC1 cells after 4 days by propidium iodide staining-based fluorometric analysis; assay type: functional, cell-based; details: PANC-1, 96 h
[49] = Cytotoxicity against human CXF 269L cells after 4 days by propidium iodide staining-based fluorometric analysis; assay type: functional, cell-based; details: 96 h

T1 sequence (P00533 whole entry): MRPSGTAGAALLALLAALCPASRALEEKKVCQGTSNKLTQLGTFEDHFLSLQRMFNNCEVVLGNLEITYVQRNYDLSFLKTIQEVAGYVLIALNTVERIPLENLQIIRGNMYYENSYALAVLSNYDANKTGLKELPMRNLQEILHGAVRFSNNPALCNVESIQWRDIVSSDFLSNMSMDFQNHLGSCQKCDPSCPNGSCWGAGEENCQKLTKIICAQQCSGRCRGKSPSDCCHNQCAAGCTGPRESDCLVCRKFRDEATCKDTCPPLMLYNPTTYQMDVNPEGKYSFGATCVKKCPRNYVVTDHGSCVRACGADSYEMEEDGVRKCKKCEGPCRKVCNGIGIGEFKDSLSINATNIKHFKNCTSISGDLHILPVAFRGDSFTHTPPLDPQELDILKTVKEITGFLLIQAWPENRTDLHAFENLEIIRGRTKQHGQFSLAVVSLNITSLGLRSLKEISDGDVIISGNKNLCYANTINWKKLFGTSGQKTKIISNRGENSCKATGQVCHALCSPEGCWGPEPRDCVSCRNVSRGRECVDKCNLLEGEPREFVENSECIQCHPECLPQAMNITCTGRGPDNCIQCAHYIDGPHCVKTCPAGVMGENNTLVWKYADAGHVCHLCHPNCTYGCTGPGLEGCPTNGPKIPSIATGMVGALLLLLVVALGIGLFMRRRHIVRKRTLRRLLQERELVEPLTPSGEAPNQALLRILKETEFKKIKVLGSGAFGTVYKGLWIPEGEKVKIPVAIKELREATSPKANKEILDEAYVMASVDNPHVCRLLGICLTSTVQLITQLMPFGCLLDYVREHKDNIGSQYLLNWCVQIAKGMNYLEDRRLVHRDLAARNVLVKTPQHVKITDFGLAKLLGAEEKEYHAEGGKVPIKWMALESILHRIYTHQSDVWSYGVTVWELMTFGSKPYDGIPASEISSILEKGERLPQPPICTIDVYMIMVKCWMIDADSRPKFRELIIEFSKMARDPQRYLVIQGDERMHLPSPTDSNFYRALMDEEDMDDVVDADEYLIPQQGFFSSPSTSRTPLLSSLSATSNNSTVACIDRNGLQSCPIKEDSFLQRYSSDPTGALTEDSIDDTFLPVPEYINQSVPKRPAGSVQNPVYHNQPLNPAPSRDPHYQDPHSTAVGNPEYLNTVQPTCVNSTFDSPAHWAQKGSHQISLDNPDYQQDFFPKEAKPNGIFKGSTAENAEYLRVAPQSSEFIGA
Chain of Receptor tyrosine-protein kinase erbB-2 (Homo sapiens) (P04626 whole entry): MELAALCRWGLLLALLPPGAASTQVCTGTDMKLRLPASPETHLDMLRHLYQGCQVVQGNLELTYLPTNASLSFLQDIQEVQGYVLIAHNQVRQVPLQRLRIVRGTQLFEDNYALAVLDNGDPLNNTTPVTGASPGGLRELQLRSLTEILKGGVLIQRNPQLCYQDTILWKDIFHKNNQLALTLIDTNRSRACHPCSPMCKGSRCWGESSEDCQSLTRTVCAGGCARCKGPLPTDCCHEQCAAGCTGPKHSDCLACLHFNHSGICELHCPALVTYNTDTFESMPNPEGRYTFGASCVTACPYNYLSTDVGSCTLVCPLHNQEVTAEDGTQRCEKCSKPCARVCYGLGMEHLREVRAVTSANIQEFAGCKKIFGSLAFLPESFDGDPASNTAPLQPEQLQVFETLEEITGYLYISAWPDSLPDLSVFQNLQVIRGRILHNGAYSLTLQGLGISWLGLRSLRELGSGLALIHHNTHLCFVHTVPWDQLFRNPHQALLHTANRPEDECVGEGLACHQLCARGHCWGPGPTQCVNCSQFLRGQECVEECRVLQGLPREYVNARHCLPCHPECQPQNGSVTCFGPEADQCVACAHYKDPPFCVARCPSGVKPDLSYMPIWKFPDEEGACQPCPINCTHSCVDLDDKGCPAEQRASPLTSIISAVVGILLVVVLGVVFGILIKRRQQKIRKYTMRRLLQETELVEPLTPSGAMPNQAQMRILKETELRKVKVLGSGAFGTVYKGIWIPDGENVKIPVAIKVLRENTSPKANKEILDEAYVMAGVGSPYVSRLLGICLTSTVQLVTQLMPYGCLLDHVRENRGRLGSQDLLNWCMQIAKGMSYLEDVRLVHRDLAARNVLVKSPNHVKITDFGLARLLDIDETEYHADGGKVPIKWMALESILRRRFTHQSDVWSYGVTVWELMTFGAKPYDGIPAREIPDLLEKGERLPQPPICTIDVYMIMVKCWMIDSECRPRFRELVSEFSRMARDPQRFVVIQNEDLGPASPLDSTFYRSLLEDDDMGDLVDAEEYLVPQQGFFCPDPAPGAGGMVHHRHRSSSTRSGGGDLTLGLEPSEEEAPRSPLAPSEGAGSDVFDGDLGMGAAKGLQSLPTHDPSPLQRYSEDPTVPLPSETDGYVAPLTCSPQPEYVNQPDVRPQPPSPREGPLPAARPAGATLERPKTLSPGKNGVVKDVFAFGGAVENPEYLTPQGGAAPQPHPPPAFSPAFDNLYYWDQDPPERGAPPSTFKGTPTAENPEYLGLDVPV
Chain of Tyrosine-protein kinase ABL1 (Homo sapiens) (P00519 whole entry): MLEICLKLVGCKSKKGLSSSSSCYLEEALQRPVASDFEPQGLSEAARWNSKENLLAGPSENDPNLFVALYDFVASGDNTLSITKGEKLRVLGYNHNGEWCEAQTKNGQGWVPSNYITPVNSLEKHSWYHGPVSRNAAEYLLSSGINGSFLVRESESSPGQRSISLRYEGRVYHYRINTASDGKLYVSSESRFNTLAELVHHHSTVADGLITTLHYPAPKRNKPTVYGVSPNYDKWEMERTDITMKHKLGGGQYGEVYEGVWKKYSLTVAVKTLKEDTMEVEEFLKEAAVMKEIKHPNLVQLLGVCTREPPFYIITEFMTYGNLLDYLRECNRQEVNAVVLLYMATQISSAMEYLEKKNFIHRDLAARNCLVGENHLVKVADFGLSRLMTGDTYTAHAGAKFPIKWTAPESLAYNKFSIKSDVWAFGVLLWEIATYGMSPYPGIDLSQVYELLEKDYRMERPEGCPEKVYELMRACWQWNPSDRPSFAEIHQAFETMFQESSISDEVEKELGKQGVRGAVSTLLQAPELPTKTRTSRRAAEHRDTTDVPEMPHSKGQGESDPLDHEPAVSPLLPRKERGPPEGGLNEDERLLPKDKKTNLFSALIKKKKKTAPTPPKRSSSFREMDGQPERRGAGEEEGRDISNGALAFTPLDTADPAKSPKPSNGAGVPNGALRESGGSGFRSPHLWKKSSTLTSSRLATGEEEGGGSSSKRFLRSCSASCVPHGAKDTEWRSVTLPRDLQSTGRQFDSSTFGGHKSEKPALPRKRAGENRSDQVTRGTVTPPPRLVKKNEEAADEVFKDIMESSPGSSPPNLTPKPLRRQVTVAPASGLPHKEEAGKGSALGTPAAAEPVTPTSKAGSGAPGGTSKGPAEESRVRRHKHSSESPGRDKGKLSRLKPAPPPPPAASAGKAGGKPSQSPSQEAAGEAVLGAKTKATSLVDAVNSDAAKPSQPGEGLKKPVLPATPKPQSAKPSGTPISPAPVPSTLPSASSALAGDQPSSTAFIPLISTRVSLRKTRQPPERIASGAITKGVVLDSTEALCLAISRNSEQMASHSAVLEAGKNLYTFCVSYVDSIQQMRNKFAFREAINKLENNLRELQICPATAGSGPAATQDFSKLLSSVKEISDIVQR
Chain of Hepatocyte growth factor receptor (Homo sapiens) (P08581 whole entry): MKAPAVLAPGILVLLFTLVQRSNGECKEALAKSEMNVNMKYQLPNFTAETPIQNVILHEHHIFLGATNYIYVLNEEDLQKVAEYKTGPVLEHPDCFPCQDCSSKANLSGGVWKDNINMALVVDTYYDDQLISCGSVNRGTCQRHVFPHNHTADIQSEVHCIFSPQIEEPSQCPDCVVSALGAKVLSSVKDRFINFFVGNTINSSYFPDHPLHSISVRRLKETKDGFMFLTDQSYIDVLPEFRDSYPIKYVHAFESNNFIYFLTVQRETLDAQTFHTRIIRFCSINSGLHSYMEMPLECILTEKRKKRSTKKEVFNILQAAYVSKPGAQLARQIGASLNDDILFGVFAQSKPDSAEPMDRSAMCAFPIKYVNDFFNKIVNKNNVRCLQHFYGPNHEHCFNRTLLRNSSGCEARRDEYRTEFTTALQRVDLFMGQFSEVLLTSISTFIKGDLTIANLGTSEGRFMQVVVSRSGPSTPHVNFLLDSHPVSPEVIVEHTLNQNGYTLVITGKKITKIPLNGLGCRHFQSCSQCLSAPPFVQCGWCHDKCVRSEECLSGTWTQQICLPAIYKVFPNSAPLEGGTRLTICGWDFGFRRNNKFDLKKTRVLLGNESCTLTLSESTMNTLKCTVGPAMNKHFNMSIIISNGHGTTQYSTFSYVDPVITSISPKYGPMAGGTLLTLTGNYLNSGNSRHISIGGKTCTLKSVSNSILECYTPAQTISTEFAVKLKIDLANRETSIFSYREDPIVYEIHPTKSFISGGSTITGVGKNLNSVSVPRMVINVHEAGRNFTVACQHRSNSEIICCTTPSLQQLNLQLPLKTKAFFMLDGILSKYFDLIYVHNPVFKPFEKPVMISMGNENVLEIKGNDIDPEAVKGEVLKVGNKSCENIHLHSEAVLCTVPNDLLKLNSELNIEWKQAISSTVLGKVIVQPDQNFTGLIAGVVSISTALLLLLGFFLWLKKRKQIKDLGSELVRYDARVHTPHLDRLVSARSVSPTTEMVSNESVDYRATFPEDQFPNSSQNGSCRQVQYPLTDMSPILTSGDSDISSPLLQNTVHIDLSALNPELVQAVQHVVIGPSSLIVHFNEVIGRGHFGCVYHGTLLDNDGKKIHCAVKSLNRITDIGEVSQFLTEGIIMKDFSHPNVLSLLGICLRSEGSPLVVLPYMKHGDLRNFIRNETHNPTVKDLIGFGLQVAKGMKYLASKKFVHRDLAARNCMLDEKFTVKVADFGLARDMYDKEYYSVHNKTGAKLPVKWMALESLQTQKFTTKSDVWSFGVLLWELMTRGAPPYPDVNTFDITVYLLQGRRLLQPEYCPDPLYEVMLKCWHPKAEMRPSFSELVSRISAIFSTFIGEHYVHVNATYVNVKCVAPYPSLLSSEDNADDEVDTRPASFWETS

`O=C(c1cc2ccccc2[nH]1)c1cc2c(Nc3cccc(Cl)c3)ncnc2s1` showed an IC50 [1] of 1.8 µM, an IC50 [2] of 20.2 µM and an IC50 [3] of 13.1 µM. The IC50 [4] was 23.7 µM, the IC50 [5] was 25.1 µM and the IC50 [6] was 16 µM. It also gave an IC50 [7] of 15.9 µM, an IC50 [8] of 19.3 µM and an IC50 [9] of 9.2 µM. For the same compound, the IC50 [10] was 0.0166 µM, the IC50 [11] was 31 µM and the IC50 [12] was 49.7 µM. For the same compound, the IC50 [13] was 26.4 µM, the IC50 [14] was 30.7 µM and the IC50 [15] was 17.7 µM. It also gave an IC50 [16] of 7.3 µM, an IC50 [17] of 24.8 µM and an inhibition [18] of 99%. For the same compound, the IC50 [19] was 47.6 µM, the IC50 [20] was 18.9 µM and the IC50 [21] was 6 µM. For the same compound, the IC50 [22] was 20 µM, the IC50 [23] was 24 µM and the IC50 [24] was 7.6 µM. For the same compound, the IC50 [25] was 21.5 µM, the IC50 [26] was 18.1 µM and the inhibition [27] was “inactive”. For the same compound, the IC50 [28] was 11.3 µM, the IC50 [29] was 4.7 µM and the IC50 [30] was 3 µM. The IC50 [31] was 14.1 µM, the IC50 [32] was 12.5 µM and the inhibition [33] was 73%. The IC50 [34] was 15.3 µM, the IC50 [35] was 13.9 µM and the IC50 [36] was 14 µM. It also gave an IC50 [37] of 4.3 µM, an IC50 [38] of 27.1 µM and an IC50 [39] of 0.3 µM. For the same compound, the IC50 [40] was 8.6 µM, the IC50 [41] was 13.6 µM and the IC50 [42] was 18.1 µM. The IC50 [43] was 23.4 µM, the IC50 [44] was 20.1 µM and the IC50 [45] was 17.7 µM. The inhibition [46] was “inactive”, the inhibition [47] was 20% and the IC50 [48] was 14.8 µM. The IC50 [49] was 28.9 µM.
